≈ marks a conversion by molar mass, not a printed value.
System: up to 32 different microorganisms
Test: in vitro antibacterial activity (MIC), agar dilution on Brain Heart Infusion (BHI) agar with Steers replicator
Format: cell-based
Settings: unit assumed
Description: Representative compounds of the present invention were assayed in vitro for antibacterial activity as follows: Twelve petri dishes containing successive aqueous dilutions of the test compound mixed with 10 mL of sterilized Brain Heart Infusion (BHI) agar (Difco 0148-01-5) were prepared. Each plate was inoculated with 1:100 (or 1:10 for slow-growing strains, such as Micrococcus and Streptococcus) dilutions of up to 32 different microorganisms, using a Steers replicator block. The inoculated plates were incubated at 35°-37° C. for 20 to 24 hours. In addition, a control plate, using BHI agar containing no test compound, was prepared and incubated at the beginning and end of each test.
An additional plate containing a compound having known susceptibility patterns for the organisms being tested and belonging to the same antibiotic class as the test compound was also prepared and incubated as a further control, as well as to provide test-to-test comparability. Erythromycin A was used for this purpose.
After incubation, each plate was visually inspected. The minimum inhibitory concentration (MIC) was defined as the lowest concentration of drug yielding no growth, a slight haze, or sparsely isolated colonies on the inoculum spot as compared to the growth control.

| Compound | MIC (organism code AA) [µg/mL] | MIC (organism code BB) [µg/mL] | MIC (organism code CC) [µg/mL] | MIC (organism code DD) [µg/mL] | MIC (organism code EE) [µg/mL] | MIC (organism code FF) [µg/mL] | MIC (organism code GG) [µg/mL] | MIC (organism code HH) [µg/mL] | MIC (organism code II) [µg/mL] | MIC (organism code JJ) [µg/mL] | MIC (organism code KK) [µg/mL] | MIC (organism code LL) [µg/mL] | MIC (organism code MM) [µg/mL] | MIC (organism code NN) [µg/mL] | MIC (organism code OO) [µg/mL] | MIC (organism code PP) [µg/mL] | MIC (organism code QQ) [µg/mL] | MIC (organism code RR) [µg/mL] | MIC (organism code SS) [µg/mL] | MIC (organism code TT) [µg/mL] | also measured |
| --- | --- | --- | --- | --- | --- | --- | --- | --- | --- | --- | --- | --- | --- | --- | --- | --- | --- | --- | --- | --- | --- |
| CC[C@H]1OC(=O)[C@H](C)C(=O)[C@H](C)[C@@H](O[C@@H]2O[C@H](C)C[C@H](N(C)C)[C@H]2O)[C@@](C)(OCC#Cc2ccc3ncccc3c2)C[C@@H](C)C(=O)[C@H](C)[C@H]2NC(=O)O[C@@]21C [Example 254, Compound of Formula (IX): L is CO, T is NH, R is —CH2—C≡C-(6-quinolyl)] | 0.1 | 0.1 | > 100 | 0.1 | 0.1 | 0.1 | > 100 | 0.1 | 0.02 | ≤ 0.005 | 0.01 | 0.01 | 0.78 | 0.1 | 0.02 | 0.1 | 25 | 0.2 | 100 | > 100 | MIC (organism code UU): 0.78 µg/mL; MIC (organism code VV): 0.01 µg/mL; MIC (organism code WW): 2 µg/mL; MIC (organism code XX): ≤ 0.004 µg/mL; MIC (organism code YY): ≤ 0.004 µg/mL; MIC (organism code ZZ): 2 µg/mL; MIC (organism code ZZA): 0.25 µg/mL |
| CC[C@H]1OC(=O)[C@H](C)C(=O)[C@H](C)[C@@H](O[C@@H]2O[C@H](C)C[C@H](N(C)C)[C@H]2O)[C@@](C)(OCC=NOc2ccccc2)C[C@@H](C)C(=O)[C@H](C)[C@H]2NC(=O)O[C@@]21C [Example 228, Compound of Formula (IX): L is CO, T is NH, R is —CH2CH═NO(phenyl)] | 0.39 | 0.78 | > 100 | 0.78 | 0.78 | 0.78 | > 100 | 0.78 | 0.1 | 0.02 | ≤ 0.005 | 0.01 | 25 | 0.78 | 0.2 | 0.39 | > 100 | 0.78 | > 100 | > 100 | MIC (organism code UU): 3.1 µg/mL; MIC (organism code VV): 0.78 µg/mL; MIC (organism code WW): 8 µg/mL; MIC (organism code XX): 0.125 µg/mL; MIC (organism code YY): 0.125 µg/mL; MIC (organism code ZZ): > 128 µg/mL; MIC (organism code ZZA): 1 µg/mL |
| CC[C@H]1OC(=O)[C@H](C)C(=O)[C@H](C)[C@@H](O[C@@H]2O[C@H](C)C[C@H](N(C)C)[C@H]2O)[C@@](C)(OCC=NOCc2ccc3ncccc3c2)C[C@@H](C)C(=O)[C@H](C)[C@H]2NC(=O)O[C@@]21C [Example 234, Compound of Formula (IX): L is CO, T is NH, R is —CH2CH═NOCH2(6-quinolyl)] | 0.1 | 0.1 | > 100 | 0.2 | 0.2 | 0.1 | > 100 | 0.1 | 0.05 | ≤ 0.005 | 0.05 | 0.01 | 100 | 0.2 | 0.01 | 0.1 | 50 | 0.39 | 50 | > 100 | MIC (organism code UU): 0.78 µg/mL; MIC (organism code VV): 0.1 µg/mL; MIC (organism code WW): 2 µg/mL; MIC (organism code XX): 0.03 µg/mL; MIC (organism code YY): 0.03 µg/mL; MIC (organism code ZZ): > 128 µg/mL; MIC (organism code ZZA): 0.25 µg/mL |
| CC[C@H]1OC(=O)[C@H](C)C(=O)[C@H](C)[C@@H](O[C@@H]2O[C@H](C)C[C@H](N(C)C)[C@H]2O)[C@@](C)(OCCNCCCCc2ccccc2)C[C@@H](C)C(=O)[C@H](C)[C@H]2NC(=O)O[C@@]21C [Example 224] | 0.39 (≈ 0.504 µM) | 0.2 (≈ 0.258 µM) | > 100 | 0.2 (≈ 0.258 µM) | 0.2 (≈ 0.258 µM) | 0.2 (≈ 0.258 µM) | > 100 | 0.39 (≈ 0.504 µM) | 0.01 (≈ 0.0129 µM) | 0.01 (≈ 0.0129 µM) | ≤ 0.005 | 0.01 (≈ 0.0129 µM) | > 100 | 0.2 (≈ 0.258 µM) | 0.02 (≈ 0.0258 µM) | 0.2 (≈ 0.258 µM) | 25 (≈ 32.3 µM) | 0.2 (≈ 0.258 µM) | 25 (≈ 32.3 µM) | > 100 | MIC (organism code UU): 3.1 µg/mL (≈ 4.01 µM); MIC (organism code VV): 0.1 µg/mL (≈ 0.129 µM); MIC (organism code WW): 4 µg/mL (≈ 5.17 µM); MIC (organism code XX): 0.03 µg/mL (≈ 0.0388 µM); MIC (organism code YY): 0.03 µg/mL (≈ 0.0388 µM); MIC (organism code ZZ): > 128 µg/mL; MIC (organism code ZZA): 2 µg/mL (≈ 2.58 µM) |
| CCC1OC(=O)C(C)C(=O)C(C)C(OC2OC(C)CC(N(C)C)C2O)C(C)(OCC=Cc2cccc3c([N+](=O)[O-])cccc23)CC(C)C(=O)C(C)C2NC(=O)OC12C (stereo not drawn) [Example 281, Compound of Formula (IX): L is CO, T is NH2, R is —CH2CH═CH-(5-nitronaphthyl)] | 0.78 | 0.78 | > 100 | 0.78 | 0.78 | 0.78 | > 100 | 0.78 | 0.39 | 0.05 | 0.1 | 0.1 | 50 | 0.39 | 0.2 | 0.78 | > 100 | 3.1 | > 100 | > 100 | MIC (organism code UU): 3.1 µg/mL; MIC (organism code VV): 3.1 µg/mL; MIC (organism code WW): 32 µg/mL; MIC (organism code XX): 0.25 µg/mL; MIC (organism code YY): 0.25 µg/mL; MIC (organism code ZZ): 64 µg/mL; MIC (organism code ZZA): 1 µg/mL |
